In patent US8110217B2, “Sphingomyelin liposomes for the treatment of hyperactive bladder disorders” (priority 2001, dated 2012):

Test system: chemically induced bladder hyperactivity
Experiment: Cystometrogram (CMG): liposomes of various lipids infused in the presence of KCl after protamine sulfate (Examples 1-4)
Type: in vivo, female Sprague-Dawley rats
Text: Bladder reflex activity in thirty-four (34) female Sprague-Dawley rats (200-250 g) was studied by cystometry performed under anesthesia with urethane (1.2 g/kg) administered by subcutaneous injection. Body temperature was maintained in the physiologic range using a heating lamp. A transurethral bladder catheter (PE-50) connected by a three-way stopcock to a pressure transducer and to a syringe pump was used to record intravesical pressure and to infuse solutions into the bladder. A control cystometrogram (CMG) was performed by slowly filling the bladder with saline at a rate of 0.04 ml/min to elicit repetitive voiding. The bladder contraction frequency of the reflex bladder contractions were recorded. After performing control CMGs with saline infusion for 3 hours, protamine sulfate (PS) (Sigma Chemical; 10 mg/ml) was infused at a rate of 0.04 ml/min for 1 hour to increase epithelial permeability followed by infusion of the irritant KCl (500 mM) for 1 hour. Subsequently, liposomes made from lipids of various compositions then were infused in the presence of a high concentration of KCl for 2 hours.
The effect of charge on the lipid headgroup in reducing bladder activity in three animal groups (n=5) was determined. Neutrally charged liposomes prepared with L-α-PC (a zwitterionic lipid egg PC) were compared against liposomes having either a positively or negatively charged polar headgroup, namely, 1,2-dioleoyl-3-trimethylammonium-propane (DOTAP) and 1-α-phosphatidylserine (POPS), respectively.
Liposomes were prepared as described by Kirby and Gregoriadis (Kirby, C. J. and Gregoriadia, G., “A simple procedure for preparing liposomes capable of high encapsulation efficiency under mild conditions,” Liposome Technology, G. Gregnoriadis, Ed., C.R.C. Press, Inc., Boca Raton, Fla., 1984, Vol. 1, p. 20, 1984). Briefly, liposomes were constructed as a 2:1 molar ratio of L-α-phosphatidylcholine and cholesterol (Sigma Chemical Co., St. Louis, Mo.) to a final lipid concentration of 1-2 mg/ml in saline. Lipids in chloroform were dried down together in the proper ratio under nitrogen. The residues were reconstituted as liposomes in saline or 500 mM KCl by intense sonication. This lipid composition produced liposomes with no net charge.
Statistical analyses were performed using Student's t test for paired or unpaired data, where applicable. A P-value less than 0.05 was considered significant. All data were expressed as means±S.E. (standard error).
Neutrally charged liposomes prepared with sphingomyelin were compared against liposomes prepared from dihydrosphingomyelin and two pure synthetic lipids: 1,2-distearoyl-sn-glycero-3-phosphocholine (DSPC) and 1,-oleoyl-2-stearoyl-sn-glycero-3-phosphocholine (OSPC).
The methodology of this investigation is the same as described above in Example 1 with the exception that the preparation of liposomes was modified from Example 1. Briefly, liposomes were constructed as a 2:1 molar ratio of sphingomyelin and cholesterol (Sigma Chemical Co., St. Louis, Mo.) to a final lipid concentration of 1-2 mg/ml in saline. Lipids in chloroform were dried down together in the proper ratio under nitrogen. The residues were reconstituted as liposomes in saline or 500 mM KCl by intense sonication. This lipid composition produced sphingomyelin liposomes with no net charge.
Sphingomyelin devoid of its phosphorylcholine head group generates the molecule ceramide, a well known lipid second messenger which mediates a wide range of cellular responses to external stimuli, and also is used for the biosynthesis of sphingomyelin and glycosphingolipids. Because ceramide cannot form stable liposomes by itself, its effect on bladder hyperactivity was tested by including it at 1 mol % in an inert lipid, namely, 1,2-distearoyl-sn-glycero-3-phosphocholine (DSPC).
The methodology of this investigation is the same as described above in Example 1 with the exception that the preparation of liposomes was modified from Example 1. […]

Substance: cerebroside
- effect on efficacy of DSPC liposomes in reducing bladder contraction frequency (DSPC/cerebroside and cholesterol liposomes): significantly increased the efficacy of DSPC

Substance: ceramide
- effect on efficacy of DSPC liposomes in reducing bladder contraction frequency (included at 1 mol % in DSPC liposomes): significantly increased the efficacy of DSPC

Substance: 1-alkyl-2-acetoyl-sn-glycero-3-phosphocholine [PAF]
- bladder reflex activity (instilled alone or included with DSPC liposomes at 1-5 mol %): aggravated the bladder reflex activity
